Drawing on ChEMBL document CHEMBL3108715, “Pan-histone demethylase inhibitors simultaneously targeting Jumonji C and lysine-specific demethylases display high anticancer activities” (J Med Chem, 2014), this text covers IC50 for seven compounds.

In assay [1] the target is T1, Lysine-specific demethylase 3A (Homo sapiens, UniProt Q9Y4C1).
T1 sequence (Q9Y4C1 whole entry): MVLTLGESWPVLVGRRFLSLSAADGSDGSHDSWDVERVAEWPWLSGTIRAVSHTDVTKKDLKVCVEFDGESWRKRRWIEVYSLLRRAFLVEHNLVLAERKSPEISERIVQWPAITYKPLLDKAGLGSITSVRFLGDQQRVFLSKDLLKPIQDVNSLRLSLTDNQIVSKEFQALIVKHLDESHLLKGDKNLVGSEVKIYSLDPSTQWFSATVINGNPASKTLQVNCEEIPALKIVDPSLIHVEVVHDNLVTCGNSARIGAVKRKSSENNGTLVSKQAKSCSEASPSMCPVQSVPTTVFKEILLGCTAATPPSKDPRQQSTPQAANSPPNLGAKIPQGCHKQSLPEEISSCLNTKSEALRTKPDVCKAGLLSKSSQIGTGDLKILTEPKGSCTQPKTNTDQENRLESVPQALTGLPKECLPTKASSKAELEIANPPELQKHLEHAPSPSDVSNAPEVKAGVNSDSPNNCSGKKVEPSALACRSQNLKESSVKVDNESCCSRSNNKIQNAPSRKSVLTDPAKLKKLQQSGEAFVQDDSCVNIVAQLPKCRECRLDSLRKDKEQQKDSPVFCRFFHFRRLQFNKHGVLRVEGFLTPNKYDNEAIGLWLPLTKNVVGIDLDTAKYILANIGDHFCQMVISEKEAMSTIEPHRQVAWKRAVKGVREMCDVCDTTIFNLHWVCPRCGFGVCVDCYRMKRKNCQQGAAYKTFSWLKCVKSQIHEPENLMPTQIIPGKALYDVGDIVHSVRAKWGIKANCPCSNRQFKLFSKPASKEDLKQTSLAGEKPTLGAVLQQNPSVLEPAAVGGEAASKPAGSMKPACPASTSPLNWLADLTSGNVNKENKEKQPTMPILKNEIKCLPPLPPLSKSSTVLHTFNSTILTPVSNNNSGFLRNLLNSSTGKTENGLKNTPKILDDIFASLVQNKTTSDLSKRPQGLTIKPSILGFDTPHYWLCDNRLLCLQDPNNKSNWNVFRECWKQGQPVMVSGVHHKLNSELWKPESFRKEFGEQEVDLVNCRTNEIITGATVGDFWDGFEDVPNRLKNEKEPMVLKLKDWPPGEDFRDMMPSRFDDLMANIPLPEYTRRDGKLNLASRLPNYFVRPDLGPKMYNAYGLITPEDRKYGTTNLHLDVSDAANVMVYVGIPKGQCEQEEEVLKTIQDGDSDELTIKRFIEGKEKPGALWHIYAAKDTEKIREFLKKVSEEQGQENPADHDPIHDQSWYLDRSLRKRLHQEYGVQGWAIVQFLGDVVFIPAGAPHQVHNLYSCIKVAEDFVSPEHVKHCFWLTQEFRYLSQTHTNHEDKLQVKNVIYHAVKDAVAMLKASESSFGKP
Description: Inhibition of recombinant JMJD1A (unknown origin) incubated for 15 mins prior to substrate addition by AlphaScreen method

For assay [2], the target named is T2, Lysine-specific demethylase 4C (Homo sapiens, UniProt Q9H3R0).
T2 sequence (Q9H3R0 whole entry): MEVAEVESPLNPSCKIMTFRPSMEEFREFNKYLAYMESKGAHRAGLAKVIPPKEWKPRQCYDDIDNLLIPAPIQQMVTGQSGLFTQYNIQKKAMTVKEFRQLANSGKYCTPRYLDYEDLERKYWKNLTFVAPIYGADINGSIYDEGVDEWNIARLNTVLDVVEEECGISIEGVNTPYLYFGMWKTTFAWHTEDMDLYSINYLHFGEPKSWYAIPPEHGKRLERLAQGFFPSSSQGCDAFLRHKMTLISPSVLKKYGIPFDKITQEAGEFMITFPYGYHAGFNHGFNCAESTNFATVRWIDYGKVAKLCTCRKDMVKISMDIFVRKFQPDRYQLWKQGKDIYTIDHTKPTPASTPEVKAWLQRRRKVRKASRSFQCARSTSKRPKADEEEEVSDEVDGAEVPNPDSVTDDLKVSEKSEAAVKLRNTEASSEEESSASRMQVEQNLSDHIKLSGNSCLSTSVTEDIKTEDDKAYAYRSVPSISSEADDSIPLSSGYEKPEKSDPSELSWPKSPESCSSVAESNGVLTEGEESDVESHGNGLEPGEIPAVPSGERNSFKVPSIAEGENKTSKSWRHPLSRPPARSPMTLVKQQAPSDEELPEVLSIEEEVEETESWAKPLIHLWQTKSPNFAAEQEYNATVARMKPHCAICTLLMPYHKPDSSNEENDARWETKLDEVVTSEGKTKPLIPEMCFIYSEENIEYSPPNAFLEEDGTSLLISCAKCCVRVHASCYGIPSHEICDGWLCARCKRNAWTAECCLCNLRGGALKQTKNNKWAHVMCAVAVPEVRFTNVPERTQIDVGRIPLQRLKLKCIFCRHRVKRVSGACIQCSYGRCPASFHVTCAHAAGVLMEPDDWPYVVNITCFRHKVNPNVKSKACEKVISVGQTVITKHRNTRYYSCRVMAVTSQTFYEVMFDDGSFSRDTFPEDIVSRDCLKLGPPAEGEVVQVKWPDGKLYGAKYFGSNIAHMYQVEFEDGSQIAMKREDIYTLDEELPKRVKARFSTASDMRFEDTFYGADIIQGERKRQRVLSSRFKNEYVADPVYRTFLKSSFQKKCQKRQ
Description: Inhibition of recombinant JMJD2C (unknown origin) incubated for 15 mins prior to substrate addition by AlphaScreen method

For assay [3], the target named is T3, Amine oxidase [flavin-containing] B (Homo sapiens, UniProt P27338).
T3 sequence (P27338 whole entry): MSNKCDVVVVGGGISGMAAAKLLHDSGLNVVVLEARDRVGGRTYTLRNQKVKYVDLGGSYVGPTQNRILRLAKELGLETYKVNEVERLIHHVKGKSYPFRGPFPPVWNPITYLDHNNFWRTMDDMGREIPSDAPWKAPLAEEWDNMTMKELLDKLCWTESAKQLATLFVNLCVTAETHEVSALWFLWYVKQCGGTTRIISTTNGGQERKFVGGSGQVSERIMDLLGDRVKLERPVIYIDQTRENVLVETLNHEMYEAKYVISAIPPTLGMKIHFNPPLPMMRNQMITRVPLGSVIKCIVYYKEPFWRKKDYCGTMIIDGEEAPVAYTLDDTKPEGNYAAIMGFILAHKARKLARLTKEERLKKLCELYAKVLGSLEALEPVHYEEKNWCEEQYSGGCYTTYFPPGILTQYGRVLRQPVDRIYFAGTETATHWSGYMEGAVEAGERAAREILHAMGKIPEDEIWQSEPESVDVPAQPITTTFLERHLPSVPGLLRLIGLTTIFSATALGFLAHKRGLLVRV
Description: Inhibition of human recombinant MAO-B expressed in Pichia pastoris using benzylamine as substrate after 5 mins

As usually defined, the IC50 is the concentration needed to halve the response being measured. A high value points to weaker potency. For `COC(=O)c1ccnc(-c2cc(C(=O)O)ccn2)c1`, the 50% inhibitory concentration (IC50) in assay [1] stood at 1.1 µM; in assay [2], 3.5 µM.

For `Cl.N[C@@H]1C[C@H]1c1ccc(NC(=O)c2ccc(O)c3ncccc23)cc1` (relative stereo), the concentration for half-maximal inhibition (IC50) worked out at 81 µM in assay [3], 31 µM in assay [1] and 1.2 µM in assay [2].

For `N[C@H]1C[C@@H]1c1ccc(NC(=O)CCCNC(=O)c2ccc(O)c3ncccc23)cc1` (relative stereo), the figures for the IC50 in assay [1] and in assay [2] were 12 µM and 4.5 µM, respectively.

`N[C@H]1C[C@@H]1c1ccc(NC(=O)CCCCNC(=O)c2ccc(O)c3ncccc23)cc1` (relative stereo): the IC50 in assay [1] is 9.7 µM; in assay [2], 3.1 µM.

Take `Cl.N[C@H]1C[C@@H]1c1ccc(NC(=O)CCCCCNC(=O)c2ccc(O)c3ncccc23)cc1` (relative stereo): the IC50 in assay [1] was determined as 9.1 µM; in assay [2] it was 2.5 µM.

For the compound `N[C@@H]1C[C@H]1c1ccc(NC(=O)c2ccnc(-c3cc(C(=O)O)ccn3)c2)cc1` (relative stereo), the values for the IC50 in assay [3], in assay [1] and in assay [2] were 47 µM, 0.14 µM and 0.07 µM, respectively.

On to `COC(=O)c1ccnc(-c2cc(C(=O)Nc3ccc([C@@H]4C[C@H]4N)cc3)ccn2)c1.Cl` (relative stereo), for which the IC50 was 43.3 µM in assay [3], 37 µM in assay [1] and 2.7 µM in assay [2].
